The results in this text go back to patent US20240299348A1, “MODULATORS OF TRPML, THEIR COMPOSITIONS AND METHODS OF USE” (Caraway Therapeutics, Inc., priority 2021, published 2024).

What all share (assay type): cell-based
The target of one test is T1, hTRPML3 (Homo sapiens, UniProt Q8TDD5).
T1 construct: expressed in transfected cells; host or cells: HEK-293 Trex (by analogy, 'performed as above')
T1 sequence (Q8TDD5 1-553): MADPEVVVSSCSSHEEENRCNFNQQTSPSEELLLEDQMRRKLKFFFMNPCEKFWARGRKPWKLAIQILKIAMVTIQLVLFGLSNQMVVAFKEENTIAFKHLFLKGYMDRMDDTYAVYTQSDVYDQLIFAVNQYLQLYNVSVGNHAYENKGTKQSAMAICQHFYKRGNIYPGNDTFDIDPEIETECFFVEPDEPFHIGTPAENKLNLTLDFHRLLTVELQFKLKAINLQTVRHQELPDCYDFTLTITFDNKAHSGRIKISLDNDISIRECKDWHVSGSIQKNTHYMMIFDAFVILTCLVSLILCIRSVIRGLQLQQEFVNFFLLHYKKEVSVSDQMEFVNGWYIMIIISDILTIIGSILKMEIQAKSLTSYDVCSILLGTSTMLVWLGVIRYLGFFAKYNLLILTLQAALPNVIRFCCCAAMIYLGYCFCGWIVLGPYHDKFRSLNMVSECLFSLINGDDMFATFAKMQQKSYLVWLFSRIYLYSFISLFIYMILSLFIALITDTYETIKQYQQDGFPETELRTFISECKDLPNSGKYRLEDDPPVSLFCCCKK
Put plainly: TRPML3 fluorescent (Fluo-4) assay. Conditions: activation; read-out: Secondary Screening: Fluo-4: hTRPML3: EC50. The method, then:
(§1) Assays for TRPML2 and TRPML3 were performed as above for TRPML1, by substituting the appropriate TRPML2 or TRPML3 subtype for the TRPML1.
(§2) EC50 values were calculated using a non-linear regression of Prism.

Another test has as its target hTRPML1 (Homo sapiens, UniProt Q9GZU1). Put plainly: TRPML1 fluorescent (Fluo-4) assay. The following applies: activation; HEK-293 Trex cells expressing hTRPML1; read-out: Secondary Screening: Fluo-4: hTRPML1: EC50. The arrangement: Secondary Screening: Fluo-4: hTRPML1: EC50 (M); HEK-293 Trex cells expressing hTRPML1. The method, then: HEK-293 Trex cells were stably transfected with a construct consisting of the human coding sequence for TRPML1 cloned into the […] plasmid pCDNA5 T/O. Mutations were introduced into the TRPML1 sequence to facilitate expression on the cell surface (Silvia Vergarajauregui, Rosa Puertollano Traffic. 2006 March; 7(3): 337-353). Briefly, the cells are cultured in 150 mm round tissue culture dishes containing 20 mL of media. The day before the assay the cells are rinsed with DPBS—Ca—Mg and then treated briefly with Trypsin-EDTA. The Trypsin-EDTA is diluted with growth media, and cells are counted. 38×10^6 cells are re-plated into 150 mm round tissue culture dishes in media containing 0.5 ug/mL doxycycline to induce expression of hTRPML1.
The day of the experiment cells are lifted from the plates as above and collected by centrifugation. The cells are then suspended in dye loading buffer consisting of Ringer's solution supplemented with 0.1% Pluronic Acid and 1 micromolar Fluo4-AM dye. Cells are loaded for ˜60 minutes in the dark with occasional mixing. The cells are collected by centrifugation, the loading media aspirated, and the cells resuspended in 25 mL Ringer's solution and incubated ˜60 minutes in the dark. The cells are again collected by centrifugation, rinsed in Ringer's Solution and resuspended to 0.2×10^6 cells/mL in modified Ringer's solution containing 10 mM calcium.
Compounds are dissolved to a concentration of 10 millimolar with DMSO. Compound plates are created by dispensing compounds into 384 well black wall clear bottom plates (Greiner 781091). Positive and negative controls are included on each plate. Typically, different amounts of each compound are tested ranging from 100 nanoMoles (20 micromolar final concentration) decreasing in half-log steps to 31 picoMoles (6 nanomolar final concentration). Each concentration is typically tested in triplicate.
50 microliters of dye-loaded cells are dispensed into each well of the compound assay plate created above. The fluorescence in each well is then determined with an excitation wavelength of 480 nm and an emission wavelength of 540 nm using either a Molecular Devices SpectraMax multimode plate reader or a Hamamatsu FDSS/uCell plate imager.
The resulting fluorescence for each well is exported as an ascii file and loaded into our LIMS for analysis. The percent activity of each compound at each concentration is determined by comparison to the positive and negative control wells included in each plate.
as §2

The target of the next test is T2, hTRPML2 (Homo sapiens, UniProt Q8IZK6).
T2 construct: expressed in transfected cells; host or cells: HEK-293 Trex (by analogy, 'performed as above')
T2 sequence (Q8IZK6 1-566): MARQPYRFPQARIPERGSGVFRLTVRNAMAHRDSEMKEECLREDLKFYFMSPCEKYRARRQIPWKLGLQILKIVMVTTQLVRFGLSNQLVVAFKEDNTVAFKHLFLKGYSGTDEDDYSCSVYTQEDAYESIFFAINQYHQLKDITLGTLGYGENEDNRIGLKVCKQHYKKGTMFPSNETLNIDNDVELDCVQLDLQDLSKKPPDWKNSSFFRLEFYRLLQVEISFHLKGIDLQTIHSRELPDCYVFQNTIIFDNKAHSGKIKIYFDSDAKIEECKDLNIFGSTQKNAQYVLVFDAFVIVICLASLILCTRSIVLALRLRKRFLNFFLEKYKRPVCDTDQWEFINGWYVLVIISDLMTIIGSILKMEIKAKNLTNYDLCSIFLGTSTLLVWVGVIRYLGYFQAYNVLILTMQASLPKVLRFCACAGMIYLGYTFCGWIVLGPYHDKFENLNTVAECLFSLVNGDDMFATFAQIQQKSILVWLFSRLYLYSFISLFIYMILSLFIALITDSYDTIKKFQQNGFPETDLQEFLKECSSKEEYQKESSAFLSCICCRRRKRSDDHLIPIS
Briefly: TRPML2 fluorescent (Fluo-4) assay. The following applies: activation; read-out: Secondary Screening: Fluo-4: hTRPML2: EC50. Here is the method: as §1, §2

Structures are written as SMILES.

hTRPML1, sequence (Q9GZU1 whole entry L15A/L16A/L577A/L578A, form open): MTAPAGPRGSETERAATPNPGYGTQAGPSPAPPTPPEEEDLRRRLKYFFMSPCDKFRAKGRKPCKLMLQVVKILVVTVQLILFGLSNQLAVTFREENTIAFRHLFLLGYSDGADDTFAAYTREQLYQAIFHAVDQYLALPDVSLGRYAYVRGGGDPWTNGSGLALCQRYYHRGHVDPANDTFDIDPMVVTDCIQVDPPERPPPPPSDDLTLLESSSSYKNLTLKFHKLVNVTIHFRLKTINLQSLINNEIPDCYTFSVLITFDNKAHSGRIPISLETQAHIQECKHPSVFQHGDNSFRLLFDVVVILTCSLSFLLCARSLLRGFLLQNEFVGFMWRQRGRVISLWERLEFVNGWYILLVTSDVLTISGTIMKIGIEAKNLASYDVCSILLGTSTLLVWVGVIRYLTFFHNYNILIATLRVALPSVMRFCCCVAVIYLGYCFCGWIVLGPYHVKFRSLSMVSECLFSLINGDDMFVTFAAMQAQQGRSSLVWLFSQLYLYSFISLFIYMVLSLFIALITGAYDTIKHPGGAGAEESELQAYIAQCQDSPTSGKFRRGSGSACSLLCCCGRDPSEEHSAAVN

One may read the EC50 as the concentration that produces a half-maximal response. Regarding `CN(C)S(=O)(=O)c1ccc(S(=O)(=O)N[C@H]2CCCC[C@@H]2N2CCN(c3ccccc3F)CC2)cc1` (relative stereo) [Compound 116, trans-N^1-(2-(4-(2-fluorophenyl)piperazin-1-yl)cyclohexyl)-N^4,N^4-dimethylbenzene-1,4-disulfonamide], the EC50 was 0.3 to 1 µM on hTRPML3 and 1 to 5 µM at hTRPML1.

Regarding `Cc1ccc(S(=O)(=O)N[C@H]2CCCC[C@@H]2N2CCN(c3ccc(Cl)cc3F)CC2)cc1` (relative stereo) [Compound 117, trans-N-(2-(4-(4-chloro-2-fluoro-phenyl)piperazin-1-yl)cyclohexyl)-4-methylbenzene-sulfonamide], the EC50 at hTRPML3 was less than 0.3 µM; at hTRPML1 it was 0.3 to 1 µM. The corresponding values for `CN(C)S(=O)(=O)c1ccc(S(=O)(=O)N[C@H]2CCCC[C@H]2N2CCN(c3ccc(Cl)cc3F)CC2)cc1` (stereo in doubt) [Compound 109, N^1-((1S,2R)-2-(4-(4-Chloro-2-fluorophenyl)piperazin-1-yl)cyclohexyl)-N^4,N^4-dimethylbenzene-1,4-disulfonamide] are 0.3 to 1 µM and 1 to 5 µM. Take `CN([C@H]1CCN(c2ccc(Cl)cc2F)C1)[C@H]1CCCC[C@@H]1NS(=O)(=O)c1ccc(S(=O)(=O)N(C)C)cc1` (stereo in doubt) [Compound 119, trans-N^1-(2-(((S)-1-(4-chloro-2-fluorophenyl)-pyrrolidin-3-yl)(methyl)-amino)cyclohexyl)-N^4,N^4-dimethylbenzene-1,4-disulfonamide]: the EC50 on hTRPML1 is less than 0.3 µM; at hTRPML2, greater than 5 µM. On to `CN(C)S(=O)(=O)c1ccc(S(=O)(=O)Nc2ccccc2N2CCC3(CN(c4ccc(Cl)cc4F)C3)C2)cc1` [Compound 102, N^1-(2-(2-(4-chloro-2-fluorophenyl)-2,6-diazaspiro[3.4]octan-6-yl)phenyl)-N^4,N^4-dimethylbenzene-1,4-disulfonamide], for which, at hTRPML1, the EC50 lay in the range of 0.3 to 1 µM.

With `CN(C)S(=O)(=O)c1ccc(S(=O)(=O)Nc2ccccc2N2CCC3(CCN(c4ccc(Cl)cc4F)C3)C2)cc1` (stereo not shown) [Compound 103, N^1-(2-(7-(4-chloro-2-fluorophenyl)-2,7-diazaspiro[4.4]nonan-2-yl)phenyl)-N^4,N^4-dimethylbenzene-1,4-disulfonamide], the 50% effective concentration (EC50) at hTRPML1 lay within 0.3 to 1 µM. Same read-out and setting: the same measure for `CN(c1ccc(Cl)cc1F)C1CCN(c2ccccc2NS(=O)(=O)c2ccc(S(=O)(=O)N(C)C)cc2)C1` (stereo not shown) [Compound 104, N^1-(2-(3-((4-chloro-2-fluorophenyl)(methyl)amino)pyrrolidin-1-yl)phenyl)-N^4,N^4-dimethylbenzene-1,4-disulfonamide]: less than 0.3 µM; for `CN(C)S(=O)(=O)c1ccc(S(=O)(=O)N[C@H]2CCCC[C@@H]2N2CCN(c3ccc(Cl)cc3F)CC2)cc1` [Compound 105, N^1-((1S,2S)-2-(4-(4-chloro-2-fluorophenyl)piperazin-1-yl)cyclohexyl)-N^4,N^4-dimethylbenzene-1,4-disulfonamide]: 0.3 to 1 µM; for `CN(C)S(=O)(=O)c1ccc(S(=O)(=O)Cc2ccccc2N2CCN(c3ccc(Cl)cc3F)CC2)cc1` [Compound 106, 4-(2-(4-(4-Chloro-2-fluorophenyl)piperazin-1-yl)benzylsulfonyl)-N,N-dimethylbenzenesulfonamide]: less than 0.3 µM. On to `CN(C)S(=O)(=O)c1ccc(S(=O)(=O)Nc2ccccc2N2C[C@H]3C[C@@H]2CN3c2ccc(Cl)cc2F)cc1` [Compound 107, N^1-(2-((1R,4R)-5-(4-chloro-2-fluorophenyl)-2,5-diazabicyclo[2.2.1]heptan-2-yl)phenyl)-N^4,N^4-dimethylbenzene-1,4-disulfonamide], for which the EC50 at hTRPML1 lay within 0.3 to 1 µM. On to `CN(C)S(=O)(=O)c1ccc(S(=O)(=O)Nc2ccccc2C2CCN(c3ccc(Cl)cc3F)CC2)cc1` [Compound 108, N^1-(2-(1-(4-chloro-2-fluorophenyl)piperidin-4-yl)phenyl)-N^4,N^4-dimethylbenzene-1,4-disulfonamide], for which the EC50 is 0.3 to 1 µM on hTRPML3 and 1 to 5 µM at hTRPML1.

On to `CN(c1ccccc1NS(=O)(=O)c1ccc(S(=O)(=O)N(C)C)cc1)[C@H]1CCN(c2ccc(Cl)cc2F)C1` [Compound 110, (S)-N^1-(2-((1-(4-chloro-2-fluorophenyl)pyrrolidin-3-yl)(methyl)amino)phenyl)-N^4,N^4-dimethylbenzene-1,4-disulfonamide], for which the EC50 at hTRPML3 and on hTRPML1 was less than 0.3 µM in each case. In the case of `CN(c1ccccc1NS(=O)(=O)c1ccc(S(=O)(=O)N(C)C)cc1)[C@@H]1CCN(c2ccc(Cl)cc2F)C1` [Compound 111, (R)-N^1-(2-((1-(4-chloro-2-fluorophenyl)pyrrolidin-3-yl)(methyl)amino)phenyl)-N^4,N^4-dimethylbenzene-1,4-disulfonamide], the EC50 is less than 0.3 µM at hTRPML3 and 0.3 to 1 µM at hTRPML1. For `CN(c1ccccc1NS(=O)(=O)c1ccc(S(=O)(=O)N(C)C)cc1)C1CCN(c2ccccc2F)C1` (stereo not shown) [Compound 112, N^1-(2-((1-(2-Fluorophen-yl)pyrrolidin-3-yl)(meth-yl)amino)phenyl)-N^4,N^4-dimethylbenzene-1,4-disulfonamide] the same measures were less than 0.3 µM and 0.3 to 1 µM. Consider `CN(c1ccccc1NS(=O)(=O)c1ccc(S(=O)(=O)N(C)C)cc1)C1CCN(C(=O)OC(C)(C)C)C1` (stereo not shown) [Compound 114, tert-butyl 3-((2-((4-(N,N-dimethylsulfamoyl)phenyl)sulfonamido)phenyl)(methyl)amino)pyrrolidine-1-carboxylate], for which the EC50 was in the range of 0.3 to 1 µM at hTRPML3 and 1 to 5 µM on hTRPML1.

With `CN(C)S(=O)(=O)c1ccc(S(=O)(=O)Nc2ccccc2N2CCN(C34CC(C3)C4)CC2)cc1` [Compound 115, N^1-(2-(4-(bicyclo[1.1.1]pentan-1-yl)piperazin-1-yl)phenyl)-N^4,N^4-dimethylbenzene-1,4-disulfonamide], the EC50 lay within 0.3 to 1 µM at hTRPML3 and 1 to 5 µM at hTRPML1. For `CN(C1CCCC[C@@H]1NS(=O)(=O)c1ccc(S(=O)(=O)N(C)C)cc1)[C@@H]1CCN(c2ccc(Cl)cc2F)C1` (stereo partly drawn) [Compound 118, trans-N^1-(2-(((R)-1-(4-Chloro-2-fluorophenyl)pyrrolidin-3-yl)(methyl)amino)cyclohexyl)-N^4,N^4-dimethylbenzene-1,4-disulfonamide], the EC50 on hTRPML1 was less than 0.3 µM; on hTRPML2, greater than 5 µM.
